Assay [1] relates to OTI-1 CD8+ T-cells. Nature of the assay: CD62L surface expression by FACS on in vitro stimulated CD8+ T cells. As to conditions: FACS median fluorescence, day 7; negative control = effector T cells expanded with IL-2/7; concentrations as in the 1st table/the 2nd table. The class given is cell-based, mouse. The method, then: (§1) Unless specified otherwise, cell media were supplemented with agents or combinations of agents at the following concentrations:
An OTI-1 mouse was sacrifice and dissected to extract the spleen. Under sterile conditions, the spleen was disrupted over a […] filter. PBS was then added to the disrupted spleen to a volume of 30 mL, and the mixture was centrifuged (1500 rpm, 5 min at room temperature).
The PBS supernatant was discarded and the cells resuspended in 2 mL of 1× red blood cell lysis buffer for 3 min. 15 mL of PBS was then added to wash the cells, and the mixture was centrifuged (1500 rpm, 5 min at room temperature).
The PBS supernatant was discarded and the cells resuspended in fresh RPMI completed media (+10% FBS, Sodium Pyruvate) before counting.
(§2) 750 μL of agent/agent combination supplementation solutions (described above) were added to corresponding wells of a flat bottom 24-well plate.
(§3) The total splenic cells were then resuspended in RPMI completed media (+10% FBS, Sodium Pyruvate), including IL-2 (final concentration 100 U/mL) and SIINFEKL peptide (final concentration 250 nM) at 1.6×10^6 cells/mL.
750 μL of cell solution (2×) were added to each well. Thus, the cell count was 1200000 cells per well at 0.8×10^6 cells/mL.
The cells were then incubated at 37° C. for 3 days.
The specific activation of OTI-1 T-cells is due to the SIINFEKL peptide. Therefore after 3 days, mostly (if not only) CD8 T-cells will have proliferated and show an activation profile.
(§4) The cells from each condition (after day 3) were counted and resuspended in RPMI completed media (+10% FBS, Sodium Pyruvate) at 1.2×10^6 cells/mL.
(§5) The cells were then distributed in 96-well or 12-well plates at 5×10^4 cells/well (96-well plate) and 6×10^6 cells/well (12-well plate).
(§6) Agent/agent combination supplementation solutions (described above) or complete media were added to corresponding wells in addition to either: (a) IL-2 (at a final concentration of 100 U/mL) and IL-7 (at a final concentration of 10 U/mL) (to keep the effector phenotype); or (b) IL-15 (at a final concentration of 10 U/mL) (to induce differentiation into memory precursor effector cells (MPECs) as a positive control.
Extra media was added at day 5 to the wells with fresh agents and cytokines.
(§7) The cells were then incubated at 37° C. for 4 days before proceeding with FACS staining or Seahorse analysis.
Cells were harvest from the 96-well plates and centrifuged (2000 rpm, 2 min at 4° C.) before washing with 150 μL of PBS.
(§8) The cells were then resuspended in 60 μL of LiveDead dye solution (1:500 dilution in PBS) and incubated for 15 min on ice. Cells were then centrifuged (2000 rpm, 2 min at 4° C.) before washing with 150 μL of PBS and then 200 μL of FACS buffer (PBS+2% FBS).
Subsequently, the cells were resuspended in 60 μL of stain solution (FACS buffer+antibodies specific for CD45.1, CD62L and CD8), and incubated for 15 min on ice.
(§9) Cells were then centrifuged (2000 rpm, 2 min at 4° C.) before washing with 150 μL of FACS buffer, and then resuspended in 150 μL of FACS buffer before analysis by FACS (BD™ LSR II).
After acquisition, FACS data were analysed using the FlowJo treestar software and median fluorescence for CD62L was extracted.
(§10) To study the enhancement of T cell immune fitness the in vitro studies focused on the development of T cells with long term and resting phenotypes, which could be equated to the development of memory cell characteristics. The metabolic intervention outcomes were evaluated using: • Cell phenotype: assessment by FACS of the cell surface expression of the specific marker CD62L, which is higher on resting T-cells. • Cell function: assessment using metabolic potential measurement (as per the Spare Respiratory Capacity) by means of an assay assessing cell respiration upon mitochondrial stress (Seahorse technology), which is higher in memory, quiescent cells.
On the technique in general: In flow cytometry, cells or beads pass a laser one at a time.

The test system of assay [2] is OTI-1 CD8+ T-cells. As to the kind of experiment: Seahorse mitochondrial stress analysis, spare respiratory capacity (metabolic potential). Type of assay: cell-based, mouse. The note with it: day 7, negative control = effector T cells expanded with IL-2/7, concentrations as in the 1st table/the 2nd table. The method, then:
as §1, §2, §3, §4, §5, §6, §7
Cells were harvested from 12-well or 6-well plates.
A probe plate containing cartridge pores (Seahorse XFe96 FluxPak) was prepared by adding 200 μL of Seahorse XF Calibrant solution (Agilent) to each well and incubating overnight at 37° C. (no CO2).
Residues were removed by transferring the cells to a 15 mL tube and a Pasteur pipette was added. 2 mL of Lympholyte M was slowly added to the Pasteur pipette, and the Ficoll was allowed to slowly release below the cells before the pipette was removed from the tube. The tube was the centrifuged at 1500 rpm, 10 min at room temperature without braking.
5 mL of fresh uncompleted RPMI was added to the cells, and the mixture was centrifuged at 1500 rpm, 5 min at room temperature. The cells were then resuspended in 1 mL of RPMI completed media (+10% FBS, Sodium Pyruvate).
Subsequently, the cells were counted before being resuspended at 5×10^6 cells/mL in completed XF Medium (non-buffered RPMI, with glucose (25 mM), L-glutamine (2 mM) and sodium pyruvate (1 mM), pH 7.3).
40 μL of cells were then distributed in corresponding pre-determined Poly-D-Lysine coated wells of a cell culture plate (V3-PS TC-Treated) and the plate was centrifuged at 400 g, 5 min.
140 μL of XF Medium was carefully added to each well, and the plate was incubated at 37° C., 30-60 min (no CO2). During this time modulator solutions (Oligomycin 10 μM; FCCP 15 μM; Rotenone/Antimycin A 1 μM/1 μg/mL) were loaded into the previously prepared cartridge pores: 20 μL of Oligomycin in pore A; 22 μL of FCCP in pore B; and 24 μL of Rotenone/Antimycin A in pore C) and the cartridge was incubated at 37° C. (no CO2).
Mitochondrial stress analysis was then carried out using the Wave software following the manufacturer instructions.
After data acquisition, oxygen consumption rates were extracted and spare respiratory capacity calculated following the manufacturer's instructions.
as §10

Assay [3] has as its system OTI-1 T cells. As to the kind of experiment: Adoptive transfer of pre-treated OTI-1 T cells into Listeria monocytogenes (Lm-OVA) infected mice, FACS of blood and spleen after 35 days. Type of assay: in vivo, C57BL/6 mice. As to conditions: for cell frequency: percentage of transferred cells (CD45.1) from total CD8 positive T cells, compared with control / percentage of memory cells (CD27 and CD43 positive) from CD8 positive transferred cells / percentage of MPECs (CD127 positive, KLRG1 negative) from CD8 positive transferred cells: 35 days of infection; for frequency levels of transferred cells compared with positive control (Phenformin treatment): Phenformin 100 μM pre-treatment. The protocol:
The metabolic intervention consisted of cell medium supplementation as described above for the in vitro procedure) using the following agent concentrations, before adoptive transfer of the cells into infected mice.
For the in vivo assessment, the positive control was obtained by pre-treating the OTI-1 CD8 T-cells in vitro with Phenformin (100 μM) following the same procedure as for the other agents). Phenformin is known to induce a metabolic switch in cells essential for the development of long-term T-cells.
C57BL/6 mice were injected intravenously with 2000 CFU of Listeria monocytogenes bacteria expressing OVA at a concentration of 1×10^4 CFU/mL (Lm-OVA; harvested in Brain Heart Infusion media without antibiotics until OD reached 0.3) in 200 μL of PBS to induce a Listeria monocytogenes infection.
Treated OTI-1 T-cells (specific for OVA recognition) were provided from day 7 of the procedure described above in Example 1 at a concentration of 1×10^5 cells/mL in PBS. Residues were cleaned from the T cells using Lympholyte M as described above.
Adoptive transfer of OTI-1 T cells was carried out by intravenously injecting each mouse with 1×10^4 cells in 200 μL of PBS.
After 35 days, the mice were sacrificed to collect blood and spleens for further surface and intracellular FACs analysis.
Harvested blood or total spleen cells were subjected to red blood cell lysis in a 96-well plate and then centrifuged (2000 rpm, 2 min at 4° C.) before washing with 150 μL of PBS.
as §8
Subsequently, the cells were resuspended in 60 μL of stain solution (FACS buffer+antibodies specific for CD45.1, CD62L, CD8, CD127, KLRG1, CD27, CD43 and CXCR3), and incubated for 15 min on ice.
as §9
After acquisition, FACS data were analysed using the FlowJo treestar software and percentages of gated cells for targeted markers were extracted. […]
The cells were the centrifuged (2000 rpm, 2 min at 4° C.) and washed with 150 μL of 1× Permeabilization buffer (Intracellular staining kit (BD™)), and then centrifuged (2000 rpm, 2 min at 4° C.) and washed with 200 μL of FACS buffer. 200 μL of FACS buffer was then added and the mixture stored at 4° C. till analysis by FACS (BD™ LSR II) either the same or following day.
After acquisition, data were analysed using the FlowJo treestar software and percentages of gated cells for the targeted markers were extracted.
To study the enhancement of T cell immune fitness the in vivo studies focused on the development of T cells with long term and resting phenotypes after treatment and adoptive transfer into mice simultaneously infected with Listeria monocytogenes. The metabolic intervention outcomes were evaluated after 35 days of infection using: • Cell frequency: assessment by FACS of the percentage of transferred cells (CD45.1) from total CD8 positive T cells in the mice blood and spleen. • Cell phenotype: assessment by FACS of the percentage of cells from the blood and spleen that developed memory patterns from total CD8 positive transferred cells (CD45.1): either memory precursor effector cells (MPECs; both positive for CD127 and negative for KLRG1 markers) or full memory cells (positive for both CD27 and CD43 markers). • Cell function: assessment by FACS of the percentage of transferred cells (CD45.1) from total CD8 positive T cells in the mice spleen expressing the functional surface marker CXCR3 and able to produce both IFNγ and TNFα cytokines by intracellular staining.

As for `N=C(N)NCCC[C@H](N)C(=O)O` [Arg, Arginine], the “CD62L surface expression level compared with negative control” value in assay [1] is reported as “higher”. The “metabolic potential (spare respiratory capacity) compared with negative control” value in assay [2] was “higher”. In addition, the “cell frequency: percentage of transferred cells (CD45.1) from total CD8 positive T cells, compared with control” value (“cell frequency: percentage” for short) in assay [3] (blood) was “higher”. Also, in assay [3] (spleen), the “cell frequency: percentage” value is reported as “higher”; the “percentage of memory cells (CD27 and CD43 positive) from CD8 positive transferred cells” value (shortened to “percentage of memory cells”) is recorded as “higher”.

Turning to `NC(=O)C[C@H](N)C(=O)O` [Asn, Asparagine], the “CD62L surface expression level compared with negative control” value in assay [1] is recorded as “higher”. In assay [2], the “metabolic potential (spare respiratory capacity) compared with negative control” value is given as “higher”.

In the case of `NCC(=O)O` [Gly, Glycine], the “CD62L surface expression level compared with negative control” value in assay [1] is reported as “higher”. Besides, in assay [2], the “metabolic potential (spare respiratory capacity) compared with negative control” value is “higher”.

For the molecule `[Cl][Mn][Cl]` [Mn, MnCl2], the “CD62L surface expression level compared with negative control” value in assay [1] is “higher”. The “metabolic potential (spare respiratory capacity) compared with negative control” value in assay [2] is “higher”.

As for `NC(=O)c1ccc[n+]([C@@H]2O[C@H](CO)[C@@H](O)[C@H]2O)c1` [NR, Nicotinamide riboside], the “CD62L surface expression level compared with negative control” value in assay [1] is on record as “higher”. Moreover, the “metabolic potential (spare respiratory capacity) compared with negative control” value in assay [2] is given as “higher”. Also, in assay [3] (blood), the “cell frequency: percentage” value was “higher”; the “percentage of MPECs (CD127 positive, KLRG1 negative) from CD8 positive transferred cells” value (from here on “percentage of MPECs”) was “higher”; the “percentage of memory cells” value is “higher”; the “frequency levels of transferred cells compared with positive control (Phenformin treatment)” value was “higher”. Besides, in assay [3] (spleen), the “cell frequency: percentage” value was “higher”; the “percentage of MPECs” value is “higher”; the “percentage of memory cells” value was “higher”; the “frequency levels of transferred cells compared with positive control (Phenformin treatment)” value was “similar”.

With `N[C@@H](CO)C(=O)O` [Ser, Serine], the “CD62L surface expression level compared with negative control” value in assay [1] is “higher”. For the same molecule, the “metabolic potential (spare respiratory capacity) compared with negative control” value in assay [2] is “higher”.

As to `O=c1oc2cc(O)ccc2c2ccc(O)cc12` [UroA, urolithin A (3,8-dihydroxyurolithin)], the “CD62L surface expression level compared with negative control” value in assay [1] is “higher”. Further, in assay [2], the “metabolic potential (spare respiratory capacity) compared with negative control” value is reported as “higher”.

Regarding Vitamin B12, in assay [1], the “CD62L surface expression level compared with negative control” value was “higher”. In assay [2], the “metabolic potential (spare respiratory capacity) compared with negative control” value is given as “higher”. Further, in assay [3] (blood), the “cell frequency: percentage” value is given as “higher”; the “percentage of memory cells” value was “higher”; the “frequency levels of transferred cells compared with positive control (Phenformin treatment)” value was “higher”. Further, in assay [3] (spleen), the “cell frequency: percentage” value is recorded as “higher”; the “percentage of MPECs” value was “higher”; the “percentage of memory cells” value was “higher”; the “frequency levels of transferred cells compared with positive control (Phenformin treatment)” value was “higher”.

For the origin of these results see US20220168271A1, “COMPOSITIONS AND METHODS FOR INCREASING T CELL FUNCTION” (SOCIETE DES PRODUITS NESTLE S.A., priority 2019, published 2022).
